Among the test systems are HT-29; CCRF-CEM; HL-60; SK-OV-3; UACC-257; TK-10; UACC-62; HCT-116; SF-268; HCT-15; EKVX; NCI-H226; OVCAR-4; DLD-1; CAKI-1; RXF 393.
Holding throughout (assay): inhibition of tumour cell growth, NCI panel, 48 h

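Following 48 hours of exposure in 96-well plates, responses at five concentrations were used to interpolate endpoints linearly. GI50: concentration for 50% inhibition of growth.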 The source made the active and inactive calls. Cut-off read from the data, not from the text of the source: active = GI50 up to about 1.1 µM and inactive = higher.

As for `O=[N+]([O-])c1ccc(/C=N/C23CC4CC(CC(C4)C2)C3)cc1`, the GI50 is > 100 µM (inactive) in the assay on HT-29; 80.4 µM (inactive) in the assay on CCRF-CEM; 71.3 µM (inactive) with HL-60; > 100 µM (inactive) in the assay on SK-OV-3; > 100 µM (inactive) with UACC-257; > 100 µM (inactive) in the assay with TK-10. Further, the GI50 in the assay on UACC-62 was > 100 µM (inactive); in the assay with HCT-116, > 100 µM (inactive); in the assay on SF-268 it was > 100 µM (inactive); in the assay on HCT-15, > 100 µM; in the assay with EKVX, > 100 µM (inactive); with NCI-H226 it was > 100 µM (inactive). The GI50 in the assay on OVCAR-4, with DLD-1, in the assay on CAKI-1 and with RXF 393 was > 100 µM (inactive) each time.
As to `N#CCN1C(=O)c2cc([N+](=O)[O-])cc3cc([N+](=O)[O-])cc(c23)C1=O`, the GI50 with HT-29 is 16.8 µM (inactive); with CCRF-CEM it was 2.77 µM (inactive); in the assay on HL-60 it was 3.21 µM (inactive); in the assay on SK-OV-3 it was 39.6 µM (inactive); with UACC-257, 15.1 µM (inactive); in the assay with TK-10 it was 27.7 µM (inactive). Also, the GI50 in the assay with UACC-62 was 12.4 µM (inactive); with HCT-116, 7.18 µM (inactive); in the assay on SF-268, 17 µM (inactive); in the assay on HCT-15 it was 6.71 µM; with EKVX, 23.6 µM (inactive); with NCI-H226, 21.6 µM (inactive). Moreover, the GI50 with OVCAR-4 is 14.8 µM (inactive); in the assay on DLD-1 it was 7.05 µM (inactive); in the assay with CAKI-1 it was 23.9 µM (inactive); in the assay on RXF 393, 8.28 µM (inactive).
In the case of `CCCOP(=S)(N1CC1)N1CC1`, the GI50 with HT-29 is > 100 µM (inactive); with CCRF-CEM it was > 100 µM (inactive); in the assay on HL-60 it was > 100 µM (inactive); in the assay with SK-OV-3, > 100 µM (inactive); in the assay on UACC-257, 24.8 µM (inactive); in the assay with TK-10 it was > 100 µM (inactive). Besides, the GI50 with UACC-62 is > 100 µM (inactive); in the assay on HCT-116 it was > 100 µM (inactive); with SF-268 it was > 100 µM (inactive); with HCT-15 it was > 100 µM; with EKVX, > 100 µM (inactive); with NCI-H226 it was 75.9 µM (inactive). The GI50 in the assay with OVCAR-4, in the assay with DLD-1, in the assay on CAKI-1 and with RXF 393 was > 100 µM (inactive) each time.
Regarding `CCOC(=O)/C(ON)=C(/CC/C(C(=O)OC)=C(\ON)C(=O)OCC)C(=O)OC`, the GI50 with HT-29, with CCRF-CEM, with HL-60, in the assay with SK-OV-3, in the assay with UACC-257 and in the assay with TK-10 was > 100 µM (inactive) each time. Also, the GI50 was > 100 µM (inactive) with UACC-62; > 100 µM (inactive) in the assay with HCT-116; > 100 µM (inactive) in the assay on SF-268; > 100 µM in the assay with HCT-15; > 100 µM (inactive) with EKVX; > 100 µM (inactive) with NCI-H226. Besides, the GI50 in the assay on OVCAR-4, in the assay with DLD-1, in the assay with CAKI-1 and in the assay on RXF 393 was > 100 µM (inactive) throughout.
In the case of `COC(=O)N/N=C(/CCC(=O)Nc1ccc(C)c(C)c1)CC(=O)C(C)(C)C`, the GI50 in the assay on HT-29, with CCRF-CEM, in the assay on HL-60, in the assay on SK-OV-3, in the assay with UACC-257 and in the assay on TK-10 was > 100 µM (inactive) in each case. Further, the GI50 with UACC-62 was > 100 µM (inactive); with SF-268, > 100 µM (inactive); in the assay with HCT-15, > 100 µM; with EKVX, > 100 µM (inactive); with NCI-H226 it was > 100 µM (inactive); with OVCAR-4, > 100 µM (inactive). Moreover, the GI50 in the assay on DLD-1, in the assay on CAKI-1 and with RXF 393 was > 100 µM (inactive) throughout.
On to `ClC/C=C/COC1CCCCO1` (stereo not given), for which the GI50 is > 100 µM (inactive) in the assay on HT-29; 36.8 µM (inactive) in the assay on CCRF-CEM; 20.6 µM (inactive) with HL-60; > 100 µM (inactive) in the assay with SK-OV-3; 45.7 µM (inactive) in the assay on UACC-257; > 100 µM (inactive) with TK-10. The GI50 with UACC-62 was 84.1 µM (inactive); with HCT-116, > 100 µM (inactive); in the assay on SF-268, 63.7 µM (inactive); in the assay on HCT-15, > 100 µM; in the assay with EKVX, > 100 µM (inactive); in the assay on NCI-H226, > 100 µM (inactive). The GI50 with OVCAR-4 is > 100 µM (inactive); with DLD-1, > 100 µM (inactive); with CAKI-1 it was 89.9 µM (inactive); in the assay with RXF 393, > 100 µM (inactive).
Consider `CC1=CC=C2C(C)(C)CC[C@@H]3OC(=O)[C@H]1[C@]23C`, for which the GI50 in the assay with HT-29, with CCRF-CEM, with HL-60, in the assay on SK-OV-3, in the assay on UACC-257 and in the assay with TK-10 was > 100 µM (inactive) throughout. Moreover, the GI50 in the assay on UACC-62, in the assay on HCT-116, in the assay with SF-268, in the assay on EKVX, in the assay on NCI-H226 and in the assay on OVCAR-4 was > 100 µM (inactive) throughout. Further, the GI50 with DLD-1, in the assay with CAKI-1 and with RXF 393 was > 100 µM (inactive) each time.
As to `O=C1C2C=CC(n3[nH]c(=O)n(Cc4ccccc4)c3=O)CC2C(=O)N1c1cccc(Cl)c1` (stereo not given), the GI50 in the assay on HT-29, with CCRF-CEM, in the assay on HL-60, in the assay with SK-OV-3, in the assay with UACC-257 and in the assay on TK-10 was > 100 µM (inactive) in each case. Also, the GI50 with UACC-62 was > 100 µM (inactive); in the assay on HCT-116, > 100 µM (inactive); with SF-268 it was > 100 µM (inactive); in the assay on HCT-15, > 100 µM; with EKVX, > 100 µM (inactive); with NCI-H226, > 100 µM (inactive). Moreover, the GI50 in the assay on OVCAR-4, with DLD-1, in the assay on CAKI-1 and in the assay on RXF 393 was > 100 µM (inactive) each time.
Regarding `OCc1cc2c(cn1)[nH]c1ccc(NCc3ccccc3)cc12`, the GI50 is 14.8 µM (inactive) in the assay on HT-29; 20.7 µM (inactive) in the assay on CCRF-CEM; 12.1 µM (inactive) in the assay on HL-60; 25.5 µM (inactive) with SK-OV-3; 23.3 µM (inactive) with UACC-257; 30.6 µM (inactive) in the assay on TK-10. In addition, the GI50 is 17.2 µM (inactive) in the assay with UACC-62; 16.4 µM (inactive) in the assay with HCT-116; 20.5 µM (inactive) with SF-268; 27.2 µM in the assay with HCT-15; 37.1 µM (inactive) in the assay with EKVX; 19.1 µM (inactive) with NCI-H226. In addition, the GI50 in the assay with OVCAR-4 was 26.5 µM (inactive); with DLD-1, 34.8 µM (inactive); in the assay with CAKI-1 it was 27.4 µM (inactive); in the assay with RXF 393, 20.3 µM (inactive).
As for `O=C1OC(c2ccccc2)=N/C1=C/NC(Cc1ccccc1)C(=O)O` (stereo not given), the GI50 in the assay on HT-29, with CCRF-CEM, in the assay with HL-60, with SK-OV-3, in the assay with UACC-257 and in the assay on TK-10 was > 100 µM (inactive) in each case. Also, the GI50 in the assay on UACC-62 is > 100 µM (inactive); with HCT-116, > 100 µM (inactive); with SF-268, > 100 µM (inactive); in the assay with HCT-15, > 100 µM; in the assay with EKVX, > 100 µM (inactive); with NCI-H226, > 100 µM (inactive). Also, the GI50 with OVCAR-4, with DLD-1, with CAKI-1 and with RXF 393 was > 100 µM (inactive) each time.
`N#CC(C#N)=CSc1ccccc1`: the GI50 in the assay with HT-29 was 28.6 µM (inactive); in the assay with CCRF-CEM, 1.52 µM (inactive); with HL-60, 11.9 µM (inactive); with SK-OV-3, 59 µM (inactive); with UACC-257, 46.2 µM (inactive); in the assay with TK-10 it was 38 µM (inactive). The GI50 is 24.2 µM (inactive) in the assay on UACC-62; 23 µM (inactive) in the assay with HCT-116; 13.4 µM (inactive) in the assay with SF-268; 22.1 µM in the assay with HCT-15; 48.2 µM (inactive) with EKVX; 19.5 µM (inactive) in the assay on NCI-H226. For the same compound, the GI50 with OVCAR-4 is 47 µM (inactive); with DLD-1 it was 24 µM (inactive); with CAKI-1, 26.2 µM (inactive); with RXF 393 it was 17.2 µM (inactive).
As to `CC1=CC(=O)CC2(C)CC[C@@H]3C[C@]12OC3(C)C` (stereo not given in full), the GI50 in the assay on HT-29, in the assay with CCRF-CEM, with HL-60, in the assay with SK-OV-3, in the assay on UACC-257 and in the assay on TK-10 was > 100 µM (inactive) each time. Also, the GI50 was > 100 µM (inactive) with UACC-62; > 100 µM (inactive) in the assay on HCT-116; > 100 µM (inactive) in the assay with SF-268; > 100 µM with HCT-15; > 100 µM (inactive) with EKVX; > 100 µM (inactive) in the assay with NCI-H226. The GI50 in the assay on OVCAR-4, with DLD-1, in the assay on CAKI-1 and with RXF 393 was > 100 µM (inactive) each time.
With `N=C1NC(=O)N2CC12` (stereo not given) [IMEXON], the GI50 was > 100 µM (inactive) with HT-29; 50.8 µM (inactive) with CCRF-CEM; 30.5 µM (inactive) with HL-60; > 100 µM (inactive) in the assay with SK-OV-3; > 100 µM (inactive) with UACC-257; > 100 µM (inactive) in the assay with TK-10. The GI50 is > 100 µM (inactive) in the assay with UACC-62; > 100 µM (inactive) in the assay with SF-268; > 100 µM in the assay on HCT-15; > 100 µM (inactive) in the assay with EKVX; > 100 µM (inactive) in the assay on NCI-H226; > 100 µM (inactive) in the assay with OVCAR-4. Further, the GI50 in the assay with DLD-1, in the assay on CAKI-1 and in the assay with RXF 393 was > 100 µM (inactive) throughout.

The values above are taken from ChEMBL document CHEMBL1201862, “PubChem BioAssay data set” (2004).
